# Test results reported in patent US20100249138A1, “MPZP: A SMALL MOLECULE CORTICOTROPIN-RELEASING FACTOR TYPE 1 RECEPTOR (CRF1) ANTOGONIST” (priority 2007, published 2010).
# System: precipitated-withdrawal induced anxiety-like behavior
# Assay: Defensive burying test during mecamylamine-precipitated nicotine withdrawal
# Assay type: in vivo, rat
# Experimental: Nicotine hydrogen tartrate salt (Sigma, Natick) was dissolved in saline at pH 7.4 and experimenter-administered via minipump or self-administered via indwelling jugular catheter. Doses are expressed as free base. Mecamylamine (Sigma; Natick, Mass.) was dissolved in saline and administered i.p. (1 ml/kg). The CRF1 antagonist (N,N-bis(2-methoxyethyl)-3-(4-methoxy-2-methylphenyl)-2,5-dimethyl-pyrazolo-[1,5α]pyrimidin-7-amine, or MPZP) was synthesized at The Scripps Research Institute by Dr. P. Wirshing, dissolved in 20% hydroxypropyl beta-cyclodextrin (Cavitron, Cargill) in isotonic saline at pH 4.5 and administered s.c. (2 ml/kg, 45 to 60 min before testing). Rat/human CRF was supplied by Dr. Jean Rivier, The Salk Institute. CRF was dissolved in 1× PBS (pH 7.4) and prepared fresh few minutes before intracerebral injection. The doses and time of injections were selected based on previous studies [Richardson et al., Program No. 783. 4 Neuroscience Meeting Planner. Atlanta, Ga.: Society for Neuroscience, OnlineI (2006); Specio et al., Program No. 777. 11 Neuroscience Meeting Planner. Washington, D.C.: Society for Neuroscience, Online (2004)].
# Rats were subcutaneously implanted with osmotic minipumps delivering either saline (n=33) or nicotine (n=31) (3.16 mg/kg/day, free base, s.c.) as described above. After 14 days of pump exposure, testing was performed 5-8 hours into the dark cycle in a standard cage with 2 inches of bedding (wood shavings) along the bottom and a small hole centered in one side one inch above the bedding to accommodate the shock-probe. Rats were habituated (45 minutes) to the test cage for 2 days prior to testing. On the test day, mecamylamine or its vehicle were administered 30 minutes before behavioral testing, and the CRF1 antagonist or its vehicle were administered 45 minutes before behavioral testing (n=7-9 per group). On contact with the probe and shock delivery (using a Coulbourn precision shocker, 1.5 mA, AC, <1 s), verified by a startle response, the probe was deactivated. The latency and duration of probe-directed burying, rearing, resting, grooming, and freezing were measured from videotape over a 10 minutes period by an experimenter blind to the subject treatment condition using a computer program.
# [1] = nicotine pump, CRF1 antagonist + Mecamylamine
# [2] = nicotine pump, CRF1 antagonist + Vehicle
# [3] = saline pump, CRF1 antagonist + Mecamylamine
# [4] = saline pump, CRF1 antagonist + Vehicle
compound,measurement,setting,value
"COCCN(CCOC)c1cc(C)nc2c(-c3ccc(OC)cc3C)c(C)nn12 [MPZP, N,N-bis(2-methoxyethyl)-3-(4-methoxy-2-methylphenyl)-2,5-dimethyl-pyrazolo[1,5-a]pyrimidin-7-amine]",Burying,[1],115 ± 24 s
same,Freezing,[1],7 ± 7 s
same,Grooming,[1],38 ± 14 s
same,Latency to bury,[1],82 ± 19 s
same,Rearing,[1],126 ± 21 s
same,Resting,[1],68 ± 26 s
same,Burying,[2],85 ± 42 s
same,Freezing,[2],13 ± 7 s
same,Grooming,[2],48 ± 18 s
same,Latency to bury,[2],130 ± 36 s
same,Rearing,[2],181 ± 21 s
same,Resting,[2],24 ± 11 s
same,anxiogenic-like effect of mecamylamine to increase burying,"nicotine-dependent rats, MPZP 4 mg/kg s.c. pretreatment, mecamylamine 1.5 mg/kg i.p.",blocked
same,Burying,[3],143 ± 20 s
same,Freezing,[3],5 ± 3 s
same,Grooming,[3],15 ± 5 s
same,Latency to bury,[3],80 ± 18 s
same,Rearing,[3],139 ± 7 s
same,Resting,[3],51 ± 22 s
same,Burying,[4],145 ± 34 s
same,Freezing,[4],9 ± 8 s
same,Grooming,[4],26 ± 12 s
same,Latency to bury,[4],104 ± 29 s
same,Rearing,[4],183 ± 19 s
same,Resting,[4],11 ± 7 s
